The structures appear in SMILES notation.

This series in a line: Brain and plasma concentrations by HPLC after IV administration. The format is in vivo, C57/BL6 mice. The following applies: single IV administration. Here is the method: FIGS. 9A-B show GEMM survival and brain/blood plasma concentrations following treatment with NSC682769. […] C57/BL6 mice were administered NSC682769 IV and mean brain and plasma concentrations were determined via HPLC analyses. (n=5).
Protein and mRNA analyses, immunoprecipitation, in vitro bead-coupled inhibitor binding assays and HPLC analyses. Western blot analyses were performed as previously described (Artinian N, et al. (2015) J Biol Chem 290: 19387-19401). Briefly, cells were lysed in RIPA (lysis) buffer containing protease inhibitor cocktail and phosSTOP™ phosphatase inhibitor cocktail (Roche) and extracts resolved by SDS-PAGE. Proteins were transferred to PVDF membranes and incubated with the indicated antibodies. Antigen-antibody complexes were detected using appropriate horseradish peroxidase-conjugated secondary antibodies (GE Healthcare) and enhanced chemiluminescence (Amersham ECL Prime). […] For quantitative RT-PCR, extraction of RNA was performed using Trizol® (Life Technologies). Total RNA was then quantified and integrity assessed using an Agilent 2100 Bioanalyzer (Agilent Technology). […] SYBR® Green quantitative PCR (Millipore Sigma) was performed in triplicate in 96-well optical plates on an ABI Prism 7000 Sequence Detection System (Life Technologies) according to the manufacturer's instructions. […]

In the case of `COc1ccc(-c2cc(-c3ccccc3)nc3c2CC(=O)Nc2ccccc2-3)cc1OC` [NSC682769], the “Cb/Cp ratios (brain/plasma)” value was “consistent with BBB penetrance”. In addition, where the note is “at 5 min post-administration”, the “Peak value in brain tissue” value stood at 6.22 µg/g.

Source of the values: patent publication US20240108634A1, “COMPOSITIONS AND METHODS FOR INHIBITING YAP” (The United States Government as represented by the …, priority 2021, published 2024).
